# Test results from ChEMBL document CHEMBL1201862, “PubChem BioAssay data set” (2004).
# Active and inactive are the calls of the source. For most assays here, no stated cut-off is given here; in the data, actives have a measured EC50 and inactives only a lower limit.
# Assays:
# [1] = target: T1, Heat shock factor protein 1 (Mus musculus, UniProt P38532); assay: HSF1 potentiators in luciferase reporter cells, confirmation, cell-based, NIH3T3, luminescence, dose retest (AID 435004); format: functional;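 further: stress induced by proteasome inhibitor MG132 added 30 min after compound; luciferase reporter driven by HSF1 response element in NIH3T3 cells; actives raise luminescence as potentiators of the MG132 stress response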
# T1 sequence (P38532 whole entry): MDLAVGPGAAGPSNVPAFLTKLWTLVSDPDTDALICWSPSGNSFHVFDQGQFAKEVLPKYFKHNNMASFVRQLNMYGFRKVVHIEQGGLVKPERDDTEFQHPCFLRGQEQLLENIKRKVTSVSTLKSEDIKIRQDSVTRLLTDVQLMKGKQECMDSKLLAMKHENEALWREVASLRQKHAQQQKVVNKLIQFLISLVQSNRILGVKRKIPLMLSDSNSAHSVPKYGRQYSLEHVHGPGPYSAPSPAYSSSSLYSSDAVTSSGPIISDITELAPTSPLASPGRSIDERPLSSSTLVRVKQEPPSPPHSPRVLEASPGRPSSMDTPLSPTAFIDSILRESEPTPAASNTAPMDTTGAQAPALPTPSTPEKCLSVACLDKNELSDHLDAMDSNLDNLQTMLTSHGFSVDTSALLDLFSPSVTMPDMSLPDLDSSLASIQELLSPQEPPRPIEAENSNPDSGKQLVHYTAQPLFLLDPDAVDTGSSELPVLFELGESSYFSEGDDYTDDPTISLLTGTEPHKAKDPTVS
# [2] = Luminescence Cell-Based Dose Confirmation HTS to Identify Activators of 5'UTR Stem-Loop Driven Alpha-Synuclein mRNA Translation in H4 Neuroglioblastoma Cells. [Related pubchem assays: 1829 (Project Summary), 1814 (Primary HTS)]; format: functional
# [3] = Luminescence Cell-Based Dose Response HTS to Identify Activators of Luciferase Translation or Activity in H4 […] Cells. [Related pubchem assays: 1829 (Project Summary), 1814 (Primary HTS)]; format: functional
# [4] = target: T2, Replicative DNA helicase DnaB (Mycobacterium tuberculosis, UniProt P9WMR3); assay: DnaB intein splicing inhibitors, dose response, biochemical, cell-free fluorescence (AID 449749); format: functional
# T2 sequence (P9WMR3 whole entry): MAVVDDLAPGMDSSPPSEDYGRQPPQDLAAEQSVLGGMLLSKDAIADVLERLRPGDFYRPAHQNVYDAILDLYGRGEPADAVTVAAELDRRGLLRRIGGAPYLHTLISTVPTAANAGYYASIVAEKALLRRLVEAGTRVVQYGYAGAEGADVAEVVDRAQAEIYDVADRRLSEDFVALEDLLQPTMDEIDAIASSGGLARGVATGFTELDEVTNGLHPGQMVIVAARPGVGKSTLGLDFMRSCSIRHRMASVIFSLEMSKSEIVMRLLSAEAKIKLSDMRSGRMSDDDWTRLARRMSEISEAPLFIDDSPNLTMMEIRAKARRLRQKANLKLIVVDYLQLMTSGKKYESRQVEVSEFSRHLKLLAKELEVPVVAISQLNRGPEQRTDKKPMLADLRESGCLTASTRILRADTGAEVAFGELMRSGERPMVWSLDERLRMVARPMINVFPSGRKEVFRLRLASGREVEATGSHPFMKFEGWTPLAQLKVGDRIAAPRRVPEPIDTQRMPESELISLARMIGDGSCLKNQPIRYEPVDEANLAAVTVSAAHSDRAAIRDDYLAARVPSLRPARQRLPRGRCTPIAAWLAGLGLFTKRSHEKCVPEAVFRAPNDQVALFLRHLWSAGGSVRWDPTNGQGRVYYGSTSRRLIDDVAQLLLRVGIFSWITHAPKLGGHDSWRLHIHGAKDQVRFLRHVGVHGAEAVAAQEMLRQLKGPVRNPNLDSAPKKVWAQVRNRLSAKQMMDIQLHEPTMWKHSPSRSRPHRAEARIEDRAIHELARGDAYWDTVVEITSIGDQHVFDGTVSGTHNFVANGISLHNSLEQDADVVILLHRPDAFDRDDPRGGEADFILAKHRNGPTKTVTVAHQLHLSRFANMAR
# Protein RecA = target: T3, Protein RecA (Mycobacterium tuberculosis, UniProt P9WHJ3); assay: Fluorescence Cell-Free Homogeneous Dose Retest to Identify Inhibitors of RecA-Intein Splicing Activity. [Related pubchem assays (depositor defined):AID2097, AID2223, AID489010, AID492950]; format: functional
# T3 sequence (P9WHJ3 whole entry): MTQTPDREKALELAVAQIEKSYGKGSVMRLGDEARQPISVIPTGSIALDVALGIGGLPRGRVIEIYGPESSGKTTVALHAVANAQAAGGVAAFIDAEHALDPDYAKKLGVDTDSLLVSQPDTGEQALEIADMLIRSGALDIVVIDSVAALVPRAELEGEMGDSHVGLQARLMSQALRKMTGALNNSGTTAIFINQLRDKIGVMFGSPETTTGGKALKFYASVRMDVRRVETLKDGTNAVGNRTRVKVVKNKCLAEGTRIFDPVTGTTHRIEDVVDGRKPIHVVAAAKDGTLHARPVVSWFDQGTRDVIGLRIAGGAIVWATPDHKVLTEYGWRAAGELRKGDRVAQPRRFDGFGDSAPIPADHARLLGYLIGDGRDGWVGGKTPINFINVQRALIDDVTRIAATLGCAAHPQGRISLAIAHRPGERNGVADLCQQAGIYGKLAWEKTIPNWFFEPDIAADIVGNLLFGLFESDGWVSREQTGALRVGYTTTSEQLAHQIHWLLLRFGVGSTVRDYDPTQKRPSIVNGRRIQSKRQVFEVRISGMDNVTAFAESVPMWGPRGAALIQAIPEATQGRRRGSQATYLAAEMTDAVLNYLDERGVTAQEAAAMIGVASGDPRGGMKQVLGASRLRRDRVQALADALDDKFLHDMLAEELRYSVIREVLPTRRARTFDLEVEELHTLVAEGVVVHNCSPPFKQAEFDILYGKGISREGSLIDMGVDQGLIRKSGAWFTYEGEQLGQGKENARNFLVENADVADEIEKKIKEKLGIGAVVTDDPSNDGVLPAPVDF
# H4 = assay: Luminescence Cell-Based Dose Response HTS to Identify Activators of 5'UTR Stem-Loop Driven Prion Protein mRNA Translation in H4 Neuroglioblastoma Cells. [Related pubchem assays: 1829 (Project Summary), 1814 (Primary HTS)]; format: functional; conditions: Homo sapiens
# [5] = NIH-3T3 fibroblast cytotoxicity, dose response, cytotoxicity control, cell-based, fluorescence, Alamar Blue, secondary assay (AID 2327); format: functional;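 further: NIH-3T3 mouse fibroblasts cultured with fluconazole at 8 µg/mL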
# [6] = C. albicans growth with fluconazole, confirmation, fluorescence, retest (AID 2467); format: functional, cell-based
# [7] = target: T4, Rac GTPase-activating protein 1 (Homo sapiens, UniProt Q9H0H5); assay: MgcRacGAP GTPase-activating activity inhibitors, confirmation, biochemical, ADP Hunter fluorescence, primary and confirmatory (AID 624330); format: functional
# T4 sequence (Q9H0H5 whole entry): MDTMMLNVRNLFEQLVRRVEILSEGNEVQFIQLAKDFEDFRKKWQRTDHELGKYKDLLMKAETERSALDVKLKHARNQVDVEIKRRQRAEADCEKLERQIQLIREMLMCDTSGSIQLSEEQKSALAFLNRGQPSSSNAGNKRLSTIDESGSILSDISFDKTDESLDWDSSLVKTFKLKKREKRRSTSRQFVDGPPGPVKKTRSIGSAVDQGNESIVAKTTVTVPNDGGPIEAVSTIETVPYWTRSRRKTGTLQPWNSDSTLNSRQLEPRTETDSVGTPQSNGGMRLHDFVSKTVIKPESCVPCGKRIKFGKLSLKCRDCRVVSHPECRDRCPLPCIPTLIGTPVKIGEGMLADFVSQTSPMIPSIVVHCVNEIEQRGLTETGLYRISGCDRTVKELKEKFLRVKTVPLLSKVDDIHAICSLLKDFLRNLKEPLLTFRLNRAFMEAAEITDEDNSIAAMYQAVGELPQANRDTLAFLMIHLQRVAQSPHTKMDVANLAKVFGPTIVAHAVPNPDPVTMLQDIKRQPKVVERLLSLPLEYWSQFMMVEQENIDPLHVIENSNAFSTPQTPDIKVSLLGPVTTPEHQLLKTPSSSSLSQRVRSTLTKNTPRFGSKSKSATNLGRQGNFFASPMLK
smiles,measurement,setting,value
CC1(C)Cc2c(C#N)c(N3CCCC3)nc(-c3ccco3)c2CO1,EC50,[1],> 260 µM (inactive)
O=C(NC1=NCCS1)c1ccc(-c2ccc(Cl)cc2)o1,EC50,[2],21.4 µM (active)
same,EC50,[3],0.306 µM (active)
Cc1ccc(-c2noc(-c3ccccc3C(=O)N3CCOCC3)n2)cc1,AC50,[4],196 µM (active)
same,EC50,Protein RecA,> 380 µM (inactive)
COC(=O)Cc1ccc(NC(=O)c2ccc(C)c(C)c2)cc1,EC50,[1],69.4 µM (active)
CC(=O)c1cnc2nc(SCc3ccccc3)nn2c1C,EC50,[2],0.116 µM (active)
same,EC50,[3],0.131 µM (inconclusive)
same,EC50,H4,74.8 µM (active)
COc1cccc(C2=NO[C@@H]3C(=O)N(c4ccc5c(c4)OCCO5)C(=O)[C@H]23)c1OC,EC50,[2],> 120 µM (not active)
same,EC50,[3],> 120 µM (not active)
same,EC50,H4,> 120 µM (not active)
CC(=O)C1=C(O)C(=O)N(c2ccc(Br)cn2)C1c1ccc(Br)cc1 (stereo unspecified),EC50,[2],> 120 µM (not active)
same,EC50,[3],0.112 µM (active)
same,EC50,H4,0.987 µM (active)
O=C(Nc1ccc2c(c1)C(=O)OC2)c1ccc(Cl)cc1,EC50,[1],> 260 µM (inactive)
Cn1cc(CNC(=O)c2sc3cccc(Cl)c3c2Cl)cn1,EC50,[1],> 260 µM (inactive)
Cc1nc(-c2ccc(S(=O)(=O)Oc3ccccc3Cl)s2)cs1,EC50,[2],13 µM (active)
same,EC50,[3],12 µM (active)
same,EC50,H4,2.84 µM (active)
O=C(NNc1ccc(Cl)cc1)c1c(F)cccc1Cl,EC50,[5],> 150 µM (inactive)
same,EC50,[6],> 38 µM (not active)
CCCCOc1ccc(CSc2nc[nH]n2)cc1,EC50,[1],106 µM (active)
COc1cc(C)c(Cl)c(C)c1S(=O)(=O)NC1CC(C)(C)NC(C)(C)C1,EC50,[2],15.2 µM (active)
same,EC50,[3],> 120 µM (not active)
same,EC50,H4,> 120 µM (not active)
CCCCN(C(=O)/C=C/c1ccco1)c1c(N)n(CCC)c(=O)[nH]c1=O,EC50,[1],> 260 µM (inactive)
Nc1ccc(S(=O)(=O)Nc2nccc(/C=C/c3ccc(Cl)cc3Cl)n2)cc1,EC50,[2],> 120 µM (not active)
same,EC50,[3],13.6 µM (active)
same,EC50,H4,> 120 µM (not active)
CCc1nnc(NC(=O)C23CC4CC(CC(C4)C2)C3)s1,EC50,[2],19 µM (active)
same,EC50,[3],45.6 µM (active)
same,EC50,H4,8.2 µM (active)
CN(C)/C=C1\NC(=S)N(c2ccccc2)C1=O,IC50,[7],65.4 µM (active)
CCOC(=O)Cn1c(S(=O)(=O)Cc2ccc(F)cc2)nc(-c2ccccc2)c1-c1ccccc1,EC50,[1],> 260 µM (inactive)
O=C(CN1CCN(c2ccc(O)cc2)CC1)Nc1ccc2c(c1)OCCCO2,IC50,[7],49.7 µM (active)
O=c1c2ccccc2cnn1CCOc1cccc(Br)c1,EC50,[2],27.5 µM (active)
same,EC50,[3],33.9 µM (active)
same,EC50,H4,6.06 µM (active)
Cc1cccc(C)c1N1CCN(S(=O)(=O)c2ccc(F)cc2)CC1,EC50,[1],> 260 µM (inactive)
COc1ccc(-c2ccc(=O)n(CC(=O)Nc3cccc(O)c3)n2)cc1OC,EC50,[5],> 150 µM (inconclusive)
same,EC50,[6],> 38 µM (not active)
COC(=O)C1(O)CC(CC(C)C)=NN1C(=O)c1ccccc1 (stereo unspecified),EC50,[1],> 260 µM (inactive)
Cc1cc(O)ccc1Nc1nc(-c2cccnc2)cs1,EC50,[2],7.92 µM (active)
same,EC50,[3],0.389 µM (active)
same,EC50,H4,6.4 µM (active)
Cc1cc(C)nc(SC2=CS(=O)(=O)c3ccccc32)n1,EC50,[2],12.1 µM (active)
same,EC50,H4,> 120 µM (not active)
CCOc1ccc(NC(=O)Cn2nnc(C(=O)NCc3ccco3)c2N)cc1,EC50,[1],> 260 µM (inactive)
O=C(CN1CCCCC1)Nc1scc2c1c(=O)oc1ccccc12,EC50,[2],> 120 µM (not active)
same,EC50,[3],16.1 µM (active)
same,EC50,H4,59.7 µM (active)
COc1ccc2c(c1)C(=C(C#N)C#N)C(=O)N2CCc1ccccc1,AC50,[4],3.97 µM (active)
same,EC50,Protein RecA,21.2 µM (active)
CCN1CCN(CCCOc2ccccc2-c2ccccc2)CC1,IC50,[7],96.9 µM (active)
CCOC(=O)C(CCOc1cccc(CC)c1)C(=O)OCC,EC50,[1],59.6 µM (active)
COc1ccc(-c2c(C)nn3c(Cl)c(C)c(C)nc23)cc1,EC50,[1],108 µM (active)
CC1=C(C(=O)N2CCOCC2)C(c2c(C)cc(C)cc2C)NC(S)=N1 (stereo unspecified),EC50,[1],> 260 µM (inactive)
Cn1ccc(C(=O)N/N=C/c2ccncc2)n1,EC50,[1],> 260 µM (inactive)
COc1cc(/C=N/NC(=O)c2cc[n+]([O-])cc2)ccc1O,IC50,[7],32.7 µM (active)
C/C(CC(=O)Nc1ccccc1[N+](=O)[O-])=N\NC(=O)COc1ccccc1C,AC50,[4],10.5 µM (active)
same,EC50,Protein RecA,3.85 µM (active)
CN1CCN(/N=C/c2nc(-c3ccc(Cl)cc3)n3ccccc23)CC1,IC50,[7],27.1 µM (active)
CC1(C)Cc2c(C#N)c(N)n(-c3ccccc3)c(=S)c2CO1,EC50,[1],> 260 µM (inactive)
Cc1ccc(NC(=O)CSc2nnc([C@@H](N)Cc3c[nH]c4ccccc34)o2)c(C)c1,EC50,[5],> 150 µM (inactive)
same,EC50,[6],> 38 µM (not active)
